In test [1] the test system is S6RP (S235/236). Briefly: Phospho-S6RP (S235/S236) in PC-3 cell lysates, MSD (Compound 2). Conditions: Homo sapiens; PC-3, 1 hour; read-out: mTORC1 S6RP (S235/236) IC50. The test is classed as cell-based.
For test [2], the system named is GSK3β (S9). Briefly: Phospho-GSK3Beta (S9) in PC-3 cell lysates, MSD (Compound 2). The test is classed as cell-based. Conditions: Homo sapiens; PC-3, 1 hour; read-out: mTORC2 GSK3β (S9) IC50. As for the experimental part:
(§1) The direct substrate for mTORC1 was 4E-BP1(T46) and the indirect downstream substrate was S6RP (S235/S236). The direct substrate for mTORC2 was AKT (S473) and the indirect downstream substrates measured were GSK3β(S9) and PRAS40 (T246). Additionally, the phosphorylation status of AKT (T308), a phosphorylation site for PDK1, was monitored. Concentration-response curves were plotted and IC50 values determined. Cells were plated in 96-well flat bottom plates at the required density (PC-3 cells/well) and the cells were allowed to equilibrate at 37° C., 5% CO2 overnight. […] After the incubation period, the culture media was removed carefully with an aspirator. The plate was placed on ice and 50 μL of 1× Tris Lysis Buffer was added to each well. The plate was placed on a shaker at 4° C. for 1 hour to lyse the cells. At that point, the plate was either frozen at -80° C. for later analysis or immediately assayed for phosphoproteins as described below. To monitor interassay variability, a reference standard was included in the assay for PC-3 cells and the coefficient of variation for assay of […]) was 9.3% (n=50) and for assay of p-AKT (S473) was 28.6% (n=50). The assay plate was incubated with 150 μL of MSD Blocking Buffer for 1 hour with shaking at room temperature. […] Then 150 μL of 1×MSD Read Buffer T was added to each well. The plate was read on the SECTOR Imager plate reader.

The test system of test [3] is AKT (T308). Briefly: Phospho-AKT (T308) in PC-3 cell lysates, MSD (Compound 2). The test is classed as cell-based. Conditions: Homo sapiens; PC-3, 1 hour; read-out: PDK1 AKT (T308) IC50. As to the method: as §1
Test [4] has as its system Ki67. Briefly: Ki67 immunohistochemistry in PC3 tumors (Compound 2). Conditions: 5 mg/kg oral QD for 6 days, 2 hours after last dose. The test is classed as in vivo, SCID mice.
Test [5] deals with GSK3β(S9). Briefly: Phospho-GSK3β(S9) in PC3 cell lysates, Luminex multiplex. The test is classed as cell-based, human. Conditions: PC3, 1 hour exposure; read-out: p-GSK3β (S9) IC50. From the text:
The direct substrate for TORC1 was 4E-BP 1(T46) and indirect downstream substrate was S6RP(S235/S236). The direct substrate for TORC2 was Akt(S473) and indirect downstream substrates measured were GSK3β(S9) and PRAS40(T246). Additionally, the phosphorylation status of Akt(T308), a phosphorylation site for PDK1 was monitored.
The multiplex Luminex assay format differs from conventional enzyme-linked immunosorbent assay (ELISA) in that the multiplex capture antibody is attached to a polystyrene bead whereas the ELISA capture antibody is attached to the microplate well. The use of the suspension bead-based technology enables the multiplexing capabilities of the Luminex assays. The xMAP® technology uses 5.6 micron polystyrene microspheres, which are internally dyed with red and infrared fluorophores of differing intensities. Each bead is given a unique number, or bead region, allowing differentiation of one bead from another. Beads covalently bound to different specific antibodies can be mixed in the same assay, utilizing a 96-well microplate format. At the completion of the sandwich immunoassay, beads can be read, using the Luminex 100™ or Luminex 200 detection system, in single-file by dual lasers for classification and quantification of each analyte. […]

As to `CCN1C(=O)CNc2ncc(-c3ccc(-c4nc[nH]n4)nc3C)nc21` [Compound 2, 1-ethyl-7-(2-methyl-6-(1H-1,2,4-triazol-3-yl)pyridin-3-yl)-3,4-dihydropyrazino[2,3-b]pyrazin-2(1H)-one], the IC50 in test [1] was 23 ± 7 nM; in test [2], 17 nM; in test [3] it was 48 nM. In addition, in test [4], the “reduction in the number of proliferating cells (Ki67) vs vehicle” value is 93%.
`CO[C@H]1CC[C@H](N2C(=O)CNc3ncc(-c4ccc(C(C)(C)O)nc4)nc32)CC1` [Compound 1, 7-(6-(2-hydroxypropan-2-yl)pyridin-3-yl)-1-((1r,4r)-4-methoxycyclohexyl)-3,4-dihydropyrazino-[2,3-b]pyrazin-2(1H)-one]: the IC50 in test [5] stood at 230 nM.

Values taken from patent US20140113904A1, “TREATMENT OF CANCER WITH TOR KINASE INHIBITORS” (SIGNAL PHARMACEUTICALS, LLC, priority 2012, published 2014).
